Data reported in patent US10070645B2, “N-cycloalkyl-N-{[2-(1-substitutedcycloalkyl)phenyl]methylene}-(thio)carboxamide derivatives” (BAYER CROPSCIENCE AKTIENGESELLSCHAFT, priority 2013, dated 2018).

Test: log P by HPLC on a reversed-phase column (C 18), EEC Directive 79/831 Annex V.A8
Assay type: physicochemical
Conditions: for chromatographic logP: reversed-phase HPLC column (C 18)
Experimental: In table 1, the log P values were determined in accordance with EEC Directive 79/831 Annex V.A8 by HPLC (High Performance Liquid Chromatography) on a reversed-phase column (C 18), using the method described below:
Temperature: 40° C.; Mobile phases: 0.1% aqueous formic acid and acetonitrile; linear gradient from 10% acetonitrile to 90% acetonitrile.
Calibration was carried out using unbranched alkan-2-ones (comprising 3 to 16 carbon atoms) with known log P values (determination of the log P values by the retention times using linear interpolation between two successive alkanones). lambda-max-values were determined using UV-spectra from 200 nm to 400 nm and the peak values of the chromatographic signals.

[1] = HPLC, reversed-phase column (C 18), 40° C., 0.1% aqueous formic acid and acetonitrile, linear gradient 10% to 90% acetonitrile
[2] = HPLC on reversed-phase column (C 18), 40° C., 0.1% aqueous formic acid and acetonitrile, linear gradient 10% to 90% acetonitrile
[3] = Table 4 (aldehydes of formula IV), HPLC C 18, 40° C., 0.1% aqueous formic acid and acetonitrile
[4] = Table 3 (amines of formula II), HPLC C 18, 40° C., 0.1% aqueous formic acid and acetonitrile

Molecule	logP [1]	further results
Cn1nc(C(F)F)c(C(=O)N(Cc2cc(Cl)ccc2C2(C)CC2)C2CC2)c1F [I.060, N-[5-chloro-2-(1-methylcyclopropyl)benzyl]-N-cyclopropyl-3-(difluoromethyl)-5-fluoro-1-methyl-1H-pyrazole-4-carboxamide]	–	chromatographic logP [1]: 4.26
Cn1nc(C(F)F)c(C(=O)N(Cc2cc(F)ccc2C2(C(F)(F)F)CC2)C2CC2)c1Cl [I.166]	–	logP [2]: 3.96
Cn1nc(C(F)F)c(C(=O)N(Cc2ccccc2C2(C(F)(F)F)CC2)C2CC2)c1Cl [I.162]	–	logP [2]: 3.87
Cc1ccc(C2(CC(C)C)CC2)c(CN(C(=O)c2c(C(F)F)nn(C)c2Cl)C2CC2)c1 [I.160]	–	logP [2]: 5.54
CCC1(c2cc(C(F)(F)F)ccc2C=O)CC1 [IV.17, 2-(1-ethylcyclopropyl)-4-(trifluoromethyl)benzaldehyde]	–	chromatographic logP [3]: 4.29
Cn1nc(C(F)F)c(C(=O)N(Cc2cc(C3CC3)ccc2C2(C)CC2(Cl)Cl)C2CC2)c1F (racemic) [I.169]	–	logP [2]: 4.59
CCC1(c2ccccc2CNC2CC2)CC1 [II.23, N-[2-(1-ethylcyclopropyl)benzyl]cyclopropanamine]	–	chromatographic logP [4]: 1.52
COC1(c2ccc(Cl)cc2CN(C(=O)c2c(C(F)F)nn(C)c2Cl)C2CC2)CC1 [I.119]	3.87	–
CCC1(c2ccc(C(F)(F)F)cc2CNC2CC2)CC1 [II.28, N-[2-(1-ethylcyclopropyl)-5-(trifluoromethyl)benzyl]cyclopropanamine]	–	chromatographic logP [4]: 1.82
FC(F)C1(c2ccccc2CNC2CC2)CC1 [II.36, N-{2-[1-(difluoromethyl)cyclopropyl]benzyl}cyclopropanamine]	–	chromatographic logP [4]: 0.92
Cn1nc(C(F)F)c(C(=O)N(Cc2cc(Cl)ccc2C2(C#N)CC2)C2CC2)c1Cl [I.095]	3.31	–
Cn1nc(C(F)F)c(C(=O)N(Cc2ccc(-c3cccc(F)c3)cc2C2(C)CC2)C2CC2)c1F [I.038]	4.96	–
Cc1ccc(C2(C3CC3)CC2)c(CNC2CC2)c1 [II.35, N-{2-[1,1′-bi(cyclopropyl)-1-yl]-5-methylbenzyl}cyclopropanamine]	–	chromatographic logP [4]: 1.67
CC(C)c1ccc(CN(C(=O)c2c(C(F)F)nn(C)c2F)C2CC2)c(C2(C)CC2)c1 [I.025]	4.90	–
Cc1ccc(F)cc1-c1ccc(CN(C(=O)c2c(C(F)F)nn(C)c2F)C2CC2)c(C2(C)CC2)c1 [I.042]	5.31	–
Cn1nc(C(F)F)c(C(=O)N(Cc2cccc(Cl)c2C2(C)CC2)C2CC2)c1Cl [I.006]	4.44	–
Cn1nc(C(F)F)c(C(=O)N(Cc2cc(Cl)ccc2C2(C(F)F)CC2)C2CC2)c1Cl [I.148]	3.85	–
Cn1nc(C(F)F)c(C(=O)N(Cc2ccc(-c3ccccc3)cc2C2(C)CC2)C2CC2)c1F [I.033]	4.93	–
Cn1nc(C(F)F)c(C(=O)N(Cc2ccccc2C2(C(F)F)CC2)C2CC2)c1Cl [I.143]	3.46	–
C=C(C)c1ccc(CN(C(=O)c2c(C(F)F)nn(C)c2F)C2CC2)c(C2(C)CC2)c1 [I.043]	4.73	–
CC1(c2c(Cl)cccc2CBr)CC1 [V.01, 1-(bromomethyl)-3-chloro-2-(1-methylcyclopropyl)benzene]	–	chromatographic logP (Table 5 (formula V), HPLC C 18, 40° C., 0.1% aqueous formic acid and acetonitrile): 4.86
C=C(C)c1ccc(Cl)cc1Br [2-bromo-4-chloro-1-(prop-1-en-2-yl)benzene]	–	chromatographic logP (preparation examples): 4.91

Molecule	logP [1]	further results
C#CC1(c2ccc(C)cc2CN(C(=O)c2c(C(F)F)nn(C)c2Cl)C2CC2)CC1 [I.093]	3.78	–
Cn1nc(C(F)F)c(C(=O)N(Cc2cc(Cl)c(Cl)cc2C2(C)CC2)C2CC2)c1Cl [I.181]	–	logP [2]: 4.93
Cn1nc(C(F)F)c(C(=S)N(Cc2cc(F)ccc2C2(C)CC2)C2CC2)c1Cl [I.069]	4.64	–
Cc1ccc(C2(C(F)F)CC2)c(CNC2CC2)c1 [II.40, N-{2-[1-(difluoromethyl)cyclopropyl]-5-methylbenzyl}cyclopropanamine]	–	chromatographic logP [4]: 1.09
Cn1nc(C(F)F)c(C(=O)N(Cc2cc(F)ccc2C2(C)CC2(Cl)Cl)C2CC2)c1F (racemic) [I.170]	–	logP [2]: 4.09
Cc1ccc(C2(C)CC2(Cl)Cl)c(CN(C(=O)c2c(C(F)F)nn(C)c2F)C2CC2)c1F (racemic) [I.179]	–	logP [2]: 4.41
Cc1ccc(C2(C)CC2)c(CN(C(=S)c2c(C(F)F)nn(C)c2Cl)C2CC2)c1 [I.074]	4.98	–
CCOC1(c2ccc(C)cc2CN(C(=O)c2c(C(F)F)nn(C)c2F)C2CC2)CC1 [I.139]	4.06	–
COC1(c2ccc(Cl)cc2CN(C(=O)c2c(C(F)F)nn(C)c2F)C2CC2)CC1 [I.118]	3.67	–
CCC1(c2ccccc2CN(C(=S)c2c(C(F)F)nn(C)c2F)C2CC2)CC1 [I.098]	4.85	–
COc1ccc(CN(C(=O)c2c(C(F)F)nn(C)c2Cl)C2CC2)c(C2(C)CC2)c1 [I.029]	3.83	–
COC1(c2ccc(C3=CCOCC3)cc2CN(C(=O)c2c(C(F)F)nn(C)c2F)C2CC2)CC1 [I.124]	3.55	–
Cn1nc(C(F)F)c(C(=O)N(Cc2cc(C3CC3)ccc2C2(C)CC2)C2CC2)c1F [I.064]	4.56	–
COc1cc(CN(C(=O)c2c(C(F)F)nn(C)c2F)C2CC2)c(C2(C)CC2)cc1OC [I.053]	3.33	–
CCC1(c2ccc(C)cc2C=O)CC1 [IV.18, 2-(1-ethylcyclopropyl)-5-methylbenzaldehyde]	–	chromatographic logP [3]: 4.29
Cc1ccc(C2(C)CC2)c(CNC2(C)CC2)c1 [II.13, 1-methyl-N-[5-methyl-2-(1-methylcyclopropyl)benzyl]cyclopropanamine]	–	chromatographic logP [4]: 1.45
1-(2-formyl-4-methylphenyl)cyclopropanecarbonitrile [IV.16]	–	logP [3]: 2.08
COCC1(c2ccc(C)cc2CN(C(=O)c2c(C(F)F)nn(C)c2Cl)C2CC2)CC1 [I.183]	–	logP [2]: 3.68
CCC1(c2cc(C)c(F)cc2CN(C(=O)c2c(C(F)F)nn(C)c2Cl)C2CC2)CC1 [I.107]	4.85	–
C=C(C)c1ccc(C2(C)CC2)c(CN(C(=O)c2c(C(F)F)nn(C)c2F)C2CC2)c1 [I.083]	4.67	–
Cc1ccc(C2(C)CC2)c(CN(C(=O)c2c(C(F)F)nn(C)c2F)C2(C#N)CC2)c1 [I.076]	3.73	–
CC1(c2ccccc2CNC2CC2)CC1 [II.01, N-[2-(1-methylcyclopropyl)benzyl]cyclopropanamine]	–	chromatographic logP [4]: 1.1

Molecule	logP [1]	further results
Cn1nc(C(F)F)c(C(=S)N(Cc2ccc(F)cc2C2(C)CC2)C2CC2)c1Cl [I.024]	4.74	–
Cn1nc(C(F)F)c(C(=O)N(Cc2cccc(C3=CC4CCC3C4)c2C2(C)CC2)C2CC2)c1F (stereo not drawn) [I.013]	5.78	–
CCCC1(c2cc(Cl)ccc2CN(C(=O)c2c(C(F)F)nn(C)c2Cl)C2CC2)CC1 [I.129]	5.31	–
Cn1nc(C(F)F)c(C(=O)N(Cc2c(C(F)(F)F)cccc2C2(C)CC2Cl)C2CC2)c1F (stereo not drawn) [I.141]	4.46	–
CC(C)CC1(c2cc(Cl)ccc2CN(C(=O)c2c(C(F)F)nn(C)c2F)C2CC2)CC1 [I.157]	5.42	–
Cn1nc(C(F)F)c(C(=O)N(Cc2c(F)cccc2C2(C)CC2)C2CC2)c1F [I.089]	3.79	–
Cn1nc(C(F)F)c(C(=O)N(Cc2cccc(F)c2C2(C)CC2)C2CC2)c1F [I.008]	3.89	–
CCC1(c2ccccc2CN(C(=S)c2c(C(F)F)nn(C)c2Cl)C2CC2)CC1 [I.099]	5.00	–
CCCC1(c2ccc(C)cc2CN(C(=O)c2c(C(F)F)nn(C)c2Cl)C2CC2)CC1 [I.131]	5.19	–
Cn1nc(C(F)F)c(C(=O)N(Cc2ccc3c(c2C2(C)CC2)OCO3)C2CC2)c1Cl [I.017]	3.67	–
Cc1ccc(C2(C(C)C)CC2)c(CN(C(=O)c2c(C(F)F)nn(C)c2F)C2CC2)c1 [I.137]	4.95	–
Cn1nc(C(F)F)c(C(=O)N(Cc2cc(F)ccc2C2(C)CC2(Cl)Cl)C2CC2)c1Cl (racemic) [I.171]	–	logP [2]: 4.21
CCC1(c2cc(C)ccc2CNC2CC2)CC1 [II.26, N-[2-(1-ethylcyclopropyl)-4-methylbenzyl]cyclopropanamine]	–	chromatographic logP [4]: 1.47
Cc1ccc(CNC2CC2)c(C2(C)CC2)c1 [II.05, N-[4-methyl-2-(1-methylcyclopropyl)benzyl]cyclopropanamine]	–	chromatographic logP [4]: 1.43
Cn1nc(C(F)F)c(C(=O)N(Cc2cc(Cl)ccc2C2(C(F)(F)F)CC2)C2CC2)c1F [I.163]	–	logP [2]: 4.13
CCC1(c2ccc(C)cc2CNC2CC2)CC1 [II.30, N-[2-(1-ethylcyclopropyl)-5-methylbenzyl]cyclopropanamine]	–	chromatographic logP [4]: 1.63
Cn1nc(C(F)F)c(C(=O)N(Cc2c(C3(C)CC3(Cl)Cl)ccc(Cl)c2F)C2CC2)c1Cl (racemic) [I.175]	–	logP [2]: 4.61
Cn1nc(C(F)F)c(C(=S)N(Cc2cc(Cl)ccc2C2(C)CC2)C2CC2)c1Cl [I.063]	5.03	–
Cn1nc(C(F)F)c(C(=O)N(Cc2ccc(-c3ccc(F)cc3)cc2C2(C)CC2)C2CC2)c1F [I.041]	4.96	–
CCC1(c2cc(C(F)(F)F)ccc2CN(C(=O)c2c(C(F)F)nn(C)c2F)C2CC2)CC1 [I.100]	4.75	–
FC(F)C1(c2ccc(Br)cc2CNC2CC2)CC1 [II.37, N-{5-bromo-2-[1-(difluoromethyl)cyclopropyl]benzyl}cyclopropanamine]	–	chromatographic logP [4]: 1.3
Cc1ccc(C2(C)CC2)c(CN(C(=O)c2c(C(F)F)nn(C)c2F)C2CC2)c1F [I.087]	4.21	–
